# Test results reported in ChEMBL document CHEMBL3885881, “DrugMatrix”.
# Species on record: Rattus norvegicus
# Assay: DrugMatrix - Regimen: Daily Repeat
# Format: toxicity, organism-based, Sprague-Dawley
# Parameters: regimen Daily Repeat, gender Male, age 6-8 weeks
# Details: in vivo; for ABSOLUTE BASOPHIL / ABSOLUTE EOSINOPHIL / ABSOLUTE LYMPHOCYTE / ABSOLUTE MONOCYTE / ABSOLUTE SEGMENTED NEUTROPHIL / BASOPHIL / EOSINOPHIL / ERYTHROCYTE COUNT / HEMOGLOBIN / LEUKOCYTE COUNT / LYMPHOCYTE / MEAN CORPUSCULAR HEMOGLOBIN / MEAN CORPUSCULAR HEMOGLOBIN CONCENTRATION / MEAN CORPUSCULAR VOLUME / MONOCYTE / NEUTROPHIL / NUCLEATED RED BLOOD CELLS / PLATELET COUNT / HEMATOCRIT: tissue Blood
# [1] = iv, 55 mg/kg, 72 h, dose level Low, time 3 day, vehicle 100 % SALINE
# [2] = iv, 55 mg/kg, 72 h, tissue Plasma, dose level Low, time 3 day, vehicle 100 % SALINE
# [3] = iv, 55 mg/kg, 120 h, dose level Low, time 5 day, vehicle 100 % SALINE
# [4] = iv, 55 mg/kg, 120 h, tissue Plasma, dose level Low, time 5 day, vehicle 100 % SALINE
# [5] = po, 0 mg/kg, 72 h, route oral GAVAGE, dose level Control, time 3 day, vehicle .5 % CMC
# [6] = po, 0 mg/kg, 72 h, tissue Plasma, route oral GAVAGE, dose level Control, time 3 day, vehicle .5 % CMC
# [7] = po, 0 mg/kg, 120 h, route oral GAVAGE, dose level Control, time 5 day, vehicle .5 % CMC
# [8] = po, 0 mg/kg, 120 h, tissue Plasma, route oral GAVAGE, dose level Control, time 5 day, vehicle .5 % CMC
# [9] = po, 3 mg/kg, 72 h, route oral GAVAGE, dose level Low, time 3 day, vehicle .5 % CMC
# [10] = po, 3 mg/kg, 72 h, tissue Plasma, route oral GAVAGE, dose level Low, time 3 day, vehicle .5 % CMC
# [11] = po, 3 mg/kg, 120 h, route oral GAVAGE, dose level Low, time 5 day, vehicle .5 % CMC
# [12] = po, 3 mg/kg, 120 h, tissue Plasma, route oral GAVAGE, dose level Low, time 5 day, vehicle .5 % CMC
molecule,measurement,setting,value
GADOPENTETATE DIMEGLUMINE,ABSOLUTE BASOPHIL,[1],0 CELLS/uL
same,ABSOLUTE EOSINOPHIL,[1],43.67 CELLS/uL
same,ABSOLUTE LYMPHOCYTE,[1],9839.33 CELLS/uL
same,ABSOLUTE MONOCYTE,[1],219.67 CELLS/uL
same,ABSOLUTE SEGMENTED NEUTROPHIL,[1],564 CELLS/uL
same,BASOPHIL,[1],0%
same,EOSINOPHIL,[1],0.33%
same,ERYTHROCYTE COUNT,[1],5.53 x10E6/uL
same,HEMOGLOBIN,[1],13.6 G/DL
same,LEUKOCYTE COUNT,[1],10.67 x10E3/uL
same,LYMPHOCYTE,[1],92.67%
same,MEAN CORPUSCULAR HEMOGLOBIN,[1],24.63 pg
same,MEAN CORPUSCULAR HEMOGLOBIN CONCENTRATION,[1],37.3 G/DL
same,MEAN CORPUSCULAR VOLUME,[1],66.07 fL
same,MONOCYTE,[1],2%
same,NEUTROPHIL,[1],5%
same,NUCLEATED RED BLOOD CELLS,[1],0 /100WBC
same,PLATELET COUNT,[1],1301 x10E3/uL
same,ALANINE AMINOTRANSFERASE,[2],40 u/L
same,ALKALINE PHOSPHATASE,[2],398.33 u/L
same,ASPARTATE AMINOTRANSFERASE,[2],87.67 u/L
same,CARBON DIOXIDE,[2],23.33 mmol/L
same,CHOLESTEROL,[2],81.33 mg/dL
same,CREATINE PHOSPHOKINASE,[2],415.67 u/L
same,CREATININE,[2],0.21 mg/dL
same,LACTATE DEHYDROGENASE,[2],589.67 u/L
same,POTASSIUM,[2],6.91 MEQ/L
same,SODIUM,[2],145.83 MEQ/L
same,TOTAL BILIRUBIN,[2],0.2 mg/dL
same,TOTAL PROTEIN,[2],6.1 G/DL
same,ABSOLUTE BASOPHIL,[3],0 CELLS/uL
same,ABSOLUTE EOSINOPHIL,[3],278.33 CELLS/uL
same,ABSOLUTE LYMPHOCYTE,[3],15424.33 CELLS/uL
same,ABSOLUTE MONOCYTE,[3],421.67 CELLS/uL
same,ABSOLUTE SEGMENTED NEUTROPHIL,[3],1375.67 CELLS/uL
same,BASOPHIL,[3],0%
same,ERYTHROCYTE COUNT,[3],5.85 x10E6/uL
same,HEMATOCRIT,[3],36.97%
same,HEMOGLOBIN,[3],14.03 G/DL
same,LEUKOCYTE COUNT,[3],17.5 x10E3/uL
same,LYMPHOCYTE,[3],88%
same,MEAN CORPUSCULAR HEMOGLOBIN,[3],24.07 pg
same,MEAN CORPUSCULAR HEMOGLOBIN CONCENTRATION,[3],37.97 G/DL
same,NEUTROPHIL,[3],8%
same,NUCLEATED RED BLOOD CELLS,[3],0 /100WBC
same,PLATELET COUNT,[3],1344.67 x10E3/uL
same,ALANINE AMINOTRANSFERASE,[4],53.33 u/L
same,ALBUMIN,[4],4.2 G/DL
same,ALKALINE PHOSPHATASE,[4],358.67 u/L
same,ASPARTATE AMINOTRANSFERASE,[4],83 u/L
same,BLOOD UREA NITROGEN,[4],16.67 mg/dL
same,CARBON DIOXIDE,[4],26.33 mmol/L
same,CHLORIDE,[4],106.67 MEQ/L
same,CHOLESTEROL,[4],68 mg/dL
same,CREATINE PHOSPHOKINASE,[4],219.67 u/L
same,CREATININE,[4],0.19 mg/dL
same,GLUCOSE,[4],172 mg/dL
same,LACTATE DEHYDROGENASE,[4],98 u/L
same,LIPASE,[4],10 u/L
same,PHOSPHORUS,[4],12.93 mg/dL
same,POTASSIUM,[4],6.64 MEQ/L
same,SODIUM,[4],146.2 MEQ/L
same,TOTAL BILIRUBIN,[4],0.2 mg/dL
same,TOTAL PROTEIN,[4],6.13 G/DL
same,URIC ACID,[4],2.37 mg/dL
NCCCC(O)(P(=O)(O)O)P(=O)(O)O [ALENDRONIC ACID],BASOPHIL,[5],0%
same,EOSINOPHIL,[5],0%
same,ERYTHROCYTE COUNT,[5],6.19 x10E6/uL
same,HEMATOCRIT,[5],36.94%
same,LEUKOCYTE COUNT,[5],11.54 x10E3/uL
same,LYMPHOCYTE,[5],84.8%
same,MEAN CORPUSCULAR HEMOGLOBIN,[5],23.58 pg
same,MEAN CORPUSCULAR HEMOGLOBIN CONCENTRATION,[5],39.44 G/DL
same,MEAN CORPUSCULAR VOLUME,[5],59.76 fL
same,MONOCYTE,[5],1.4%
same,NEUTROPHIL,[5],13.8%
same,PLATELET COUNT,[5],1068.8 x10E3/uL
same,ALANINE AMINOTRANSFERASE,[6],38.17 u/L
same,ALBUMIN,[6],3.88 G/DL
same,ALKALINE PHOSPHATASE,[6],391.33 u/L
same,ASPARTATE AMINOTRANSFERASE,[6],69.83 u/L
same,BLOOD UREA NITROGEN,[6],15 mg/dL
same,CHLORIDE,[6],104.17 MEQ/L
same,CHOLESTEROL,[6],72.17 mg/dL
same,CREATINE PHOSPHOKINASE,[6],174.33 u/L
same,CREATININE,[6],0.58 mg/dL
same,GLUCOSE,[6],192.67 mg/dL
same,PHOSPHORUS,[6],10.52 mg/dL
same,POTASSIUM,[6],6.8 MEQ/L
same,SODIUM,[6],149.67 MEQ/L
same,TOTAL BILIRUBIN,[6],0.78 mg/dL
same,TOTAL PROTEIN,[6],6.28 G/DL
same,BASOPHIL,[7],0%
same,EOSINOPHIL,[7],0.17%
same,ERYTHROCYTE COUNT,[7],6.72 x10E6/uL
same,HEMATOCRIT,[7],40.02%
same,LEUKOCYTE COUNT,[7],9.5 x10E3/uL
same,LYMPHOCYTE,[7],87.17%
same,MEAN CORPUSCULAR HEMOGLOBIN,[7],23.57 pg
same,MEAN CORPUSCULAR HEMOGLOBIN CONCENTRATION,[7],39.62 G/DL
same,MEAN CORPUSCULAR VOLUME,[7],59.55 fL
same,MONOCYTE,[7],1.67%
same,NEUTROPHIL,[7],11%
same,PLATELET COUNT,[7],1053.67 x10E3/uL
same,ALANINE AMINOTRANSFERASE,[8],26.33 u/L
same,ALBUMIN,[8],4.02 G/DL
same,ALKALINE PHOSPHATASE,[8],316.67 u/L
same,ASPARTATE AMINOTRANSFERASE,[8],61.33 u/L
same,BLOOD UREA NITROGEN,[8],18.67 mg/dL
same,CHLORIDE,[8],108 MEQ/L
same,CHOLESTEROL,[8],65.17 mg/dL
same,CREATINE PHOSPHOKINASE,[8],161.17 u/L
same,CREATININE,[8],0.75 mg/dL
same,GLUCOSE,[8],177.33 mg/dL
same,PHOSPHORUS,[8],9.72 mg/dL
same,POTASSIUM,[8],6.18 MEQ/L
same,SODIUM,[8],150.5 MEQ/L
same,TOTAL BILIRUBIN,[8],0.68 mg/dL
same,TOTAL PROTEIN,[8],6.55 G/DL
same,BASOPHIL,[9],0%
same,EOSINOPHIL,[9],0%
same,ERYTHROCYTE COUNT,[9],5.67 x10E6/uL
same,HEMATOCRIT,[9],34.63%
same,LEUKOCYTE COUNT,[9],9.73 x10E3/uL
same,LYMPHOCYTE,[9],86.33%
same,MEAN CORPUSCULAR HEMOGLOBIN,[9],24.23 pg
same,MEAN CORPUSCULAR HEMOGLOBIN CONCENTRATION,[9],39.67 G/DL
same,MEAN CORPUSCULAR VOLUME,[9],61.13 fL
same,MONOCYTE,[9],1.33%
same,NEUTROPHIL,[9],12.33%
same,PLATELET COUNT,[9],1035.67 x10E3/uL
same,ALANINE AMINOTRANSFERASE,[10],34 u/L
same,ALBUMIN,[10],3.77 G/DL
same,ALKALINE PHOSPHATASE,[10],322.33 u/L
same,ASPARTATE AMINOTRANSFERASE,[10],69 u/L
same,BLOOD UREA NITROGEN,[10],16 mg/dL
same,CHLORIDE,[10],105.67 MEQ/L
same,CHOLESTEROL,[10],63 mg/dL
same,CREATINE PHOSPHOKINASE,[10],139.33 u/L
same,CREATININE,[10],0.6 mg/dL
same,GLUCOSE,[10],171 mg/dL
same,PHOSPHORUS,[10],10.3 mg/dL
same,POTASSIUM,[10],6.6 MEQ/L
same,SODIUM,[10],150 MEQ/L
same,TOTAL BILIRUBIN,[10],0.57 mg/dL
same,TOTAL PROTEIN,[10],5.97 G/DL
same,BASOPHIL,[11],0%
same,EOSINOPHIL,[11],0.67%
same,ERYTHROCYTE COUNT,[11],6.7 x10E6/uL
same,HEMATOCRIT,[11],40.67%
same,LEUKOCYTE COUNT,[11],10.57 x10E3/uL
same,LYMPHOCYTE,[11],75%
same,MEAN CORPUSCULAR HEMOGLOBIN,[11],24.1 pg
same,MEAN CORPUSCULAR HEMOGLOBIN CONCENTRATION,[11],39.7 G/DL
same,MEAN CORPUSCULAR VOLUME,[11],60.77 fL
same,MONOCYTE,[11],3%
same,NEUTROPHIL,[11],21.33%
same,PLATELET COUNT,[11],904.33 x10E3/uL
same,ALANINE AMINOTRANSFERASE,[12],30.67 u/L
same,ALBUMIN,[12],4.1 G/DL
same,ALKALINE PHOSPHATASE,[12],352.33 u/L
same,ASPARTATE AMINOTRANSFERASE,[12],64 u/L
same,BLOOD UREA NITROGEN,[12],14.67 mg/dL
same,CHLORIDE,[12],106 MEQ/L
same,CHOLESTEROL,[12],64.33 mg/dL
same,CREATINE PHOSPHOKINASE,[12],130.33 u/L
same,CREATININE,[12],0.77 mg/dL
same,GLUCOSE,[12],191 mg/dL
same,PHOSPHORUS,[12],10.83 mg/dL
same,POTASSIUM,[12],6.4 MEQ/L
same,SODIUM,[12],150.67 MEQ/L
same,TOTAL BILIRUBIN,[12],0.83 mg/dL
same,TOTAL PROTEIN,[12],6.73 G/DL
